Laboratory results reported in ChEMBL document CHEMBL3822432, “Antibacterial and anticancer activity of a series of novel peptides incorporating cyclic tetra-substituted C(α) amino acids” (Bioorg Med Chem, 2016).
Converted amounts (≈) assume the structure as drawn. Non-standard residues stand in square brackets, D forms with d. Residues, ends and D or L forms follow the SMILES beside them. Ac6c = NC1(C(=O)O)CCCCC1; Ac5c = NC1(C(=O)O)CCCC1

How the values were obtained:
Klebsiella aerogenes = experiment: Antibacterial activity against carbapenem-resistant Enterobacter aerogenes NCDC819-56 ATCC 13048 by two fold serial dilution method; type: functional
Acinetobacter baumannii = experiment: Antibacterial activity against Acinetobacter baumannii B5W71 ATCC 15149 by two fold serial dilution method; type: functional
[1] = Antibacterial activity against Salmonella enterica LT2 Typhimurium ATCC 15277 by two fold serial dilution method; type: functional
Pseudomonas aeruginosa = experiment: Antibacterial activity against Pseudomonas aeruginosa Boston 41501 ATCC 27853 by two fold serial dilution method; type: functional
[2] = Antibacterial activity against carbapenem-resistant Klebsiella pneumoniae K6 ATCC 700603 by two fold serial dilution method; type: functional, Klebsiella pneumoniae 700603
Enterococcus faecalis = experiment: Antibacterial activity against Enterococcus faecalis Portland ATCC 29212 by two fold serial dilution method; type: functional; conditions: ATCC 29212 Portland
Staphylococcus aureus [3] = experiment: Antibacterial activity against methicillin-resistant Staphylococcus aureus USA 300 NRS 384 by two fold serial dilution method; type: functional
[4] = Antibacterial activity against Clostridium difficile VIP 10463 ATCC 43255 by two fold serial dilution method; type: functional, Clostridium difficile ATCC 43255; conditions: Clostridioides difficile
Staphylococcus aureus [5] = experiment: Antibacterial activity against Staphylococcus aureus Seattle 1945 ATCC 25923 by two fold serial dilution method; type: functional
Streptococcus pneumoniae = experiment: Antibacterial activity against Streptococcus pneumoniae 262 ATCC 49619 by two fold serial dilution method; type: functional
Neisseria gonorrhoeae = experiment: Antibacterial activity against Neisseria gonorrhoeae F-18 ATCC 49226 by two fold serial dilution method; type: functional
[6] = Antibacterial activity against Bacillus anthracis Ames NR-3838 by two fold serial dilution method; type: functional, Bacillus anthracis str. Ames
[7] = Antibacterial activity against Francisella tularensis SCHU S4 NR-643 by two fold serial dilution method; type: functional
[8] = Antibacterial activity against Yersinia pestis CO92 NR641 by two fold serial dilution method; type: functional
[9] = system: Burkholderia pseudomallei; experiment: Antibacterial activity against Burkholderia pseudomallei AHS 1 NCTC 8016 by two fold serial dilution method; type: functional
[10] = system: Mycobacterium tuberculosis; experiment: Antibacterial activity against Mycobacterium tuberculosis H37Ra ATCC 2517 by two fold serial dilution method; type: functional
CFPAC-1 = experiment: Antiproliferative activity against human CFPAC-1 cells after 72 hrs by Celltiter-Glo luminescent cell viability assay; type: functional, cell-based; conditions: CFPAC-1, 72 h
MCF7 = experiment: Antiproliferative activity against human MCF7 cells after 72 hrs by Celltiter-Glo luminescent cell viability assay; type: functional, cell-based; conditions: MCF7, 72 h
[11] = Antiproliferative activity against human IGROV1 cells after 72 hrs by Celltiter-Glo luminescent cell viability assay; type: functional, cell-based; conditions: IGROV-1, 72 h
[12] = Antiproliferative activity against human COLO205 cells after 72 hrs by Celltiter-Glo luminescent cell viability assay; type: functional, cell-based; conditions: COLO 205, 72 h
[13] = Antiproliferative activity against human DLD1 cells after 72 hrs by Celltiter-Glo luminescent cell viability assay; type: functional, cell-based; conditions: DLD-1, 72 h
[14] = Antiproliferative activity against human UACC62 cells after 72 hrs by Celltiter-Glo luminescent cell viability assay; type: functional, cell-based; conditions: UACC-62, 72 h
[15] = Antiproliferative activity against human MIAPaCa2 cells after 72 hrs by Celltiter-Glo luminescent cell viability assay; type: functional, cell-based; conditions: MIA PaCa-2, 72 h
A498 = experiment: Antiproliferative activity against human A498 cells after 72 hrs by Celltiter-Glo luminescent cell viability assay; type: functional, cell-based; conditions: A498, 72 h
[16] = Antiproliferative activity against human PC3 cells after 72 hrs by Celltiter-Glo luminescent cell viability assay; type: functional, cell-based; conditions: PC-3, 72 h
A549 = experiment: Antiproliferative activity against human A549 cells after 72 hrs by Celltiter-Glo luminescent cell viability assay; type: functional, cell-based; conditions: A549, 72 h
NCI-H69 = experiment: Antiproliferative activity against human NCI-H69 cells after 72 hrs by Celltiter-Glo luminescent cell viability assay; type: functional, cell-based; conditions: NCI-H69, 72 h
RL = experiment: Antiproliferative activity against human RL cells after 72 hrs by Celltiter-Glo luminescent cell viability assay; type: functional, cell-based

| SMILES | MIC (Klebsiella aerogenes) [µM] | MIC (Acinetobacter baumannii) [µM] | MIC [1] [µM] | MIC (Pseudomonas aeruginosa) [µM] | MIC [2] [µM] | MIC (Enterococcus faecalis) [µM] | MIC (Staphylococcus aureus [3]) [µM] | MIC [4] [µM] | MIC (Staphylococcus aureus [5]) [µM] | MIC (Streptococcus pneumoniae) [µM] | MIC (Neisseria gonorrhoeae) [µM] | MIC [6] [µM] | MIC [7] [µM] | MIC [8] [µM] | MIC [9] [µM] | MIC [10] [µM] | IC50 (CFPAC-1) [µM] | IC50 (MCF7) [µM] | IC50 [11] [µM] | IC50 [12] [µM] | other results |
| --- | --- | --- | --- | --- | --- | --- | --- | --- | --- | --- | --- | --- | --- | --- | --- | --- | --- | --- | --- | --- | --- |
| CC(=O)NCC(=O)N[C@@H](Cc1ccccc1)C(=O)NC1(C(=O)NCC(=O)NC2(C(=O)N[C@@H](CCCCN)C(=O)NC3(C(=O)NCC(=O)NC4(C(=O)N[C@@H](Cc5ccccc5)C(=O)NC5(C(=O)NCC(=O)NC6(C(=O)NCC(=O)N[C@@H](CCCCN)C(=O)NC7(C(=O)N[C@@H](CCCCN)C(=O)N[C@@H](CCCCN)C(=O)N[C@@H](CCCCN)C(=O)N[C@@H](CCCCN)C(N)=O)CCCC7)CCCC6)CCCC5)CCCC4)CCCC3)CCCC2)CCCC1 (Ac-GF[Ac5c]G[Ac5c]K[Ac5c]G[Ac5c]F[Ac5c]G[Ac5c]GK[Ac5c]KKKK-NH2) | > 46 | 2.86 (≈ 6.25 µg/mL) | 5.71 (≈ 12.5 µg/mL) | 22.9 (≈ 49.9 µg/mL) | > 46 | > 46 | > 46 | 1.43 (≈ 3.13 µg/mL) | > 46 | > 46 | 22.9 (≈ 50 µg/mL) | > 46 | 22.9 (≈ 50 µg/mL) | > 46 | > 46 | 11.4 (≈ 25 µg/mL) | > 7.5 | > 7.5 | > 7.5 | > 7.5 | IC50 [13]: > 7.5 µM; IC50 [14]: > 7.5 µM; IC50 [15]: > 7.5 µM; IC50 (A498): > 7.5 µM; IC50 [16]: > 7.5 µM; IC50 (A549): > 7.5 µM; IC50 (NCI-H69): > 7.5 µM; IC50 (RL): > 7.5 µM |
| CC(=O)N[C@@H](CCCCN)C(=O)N[C@@H](CCCCN)C(=O)N[C@@H](CCCCN)C(=O)N[C@@H](CCCCN)C(=O)NCC(=O)N[C@@H](Cc1ccccc1)C(=O)NC1(C(=O)NCC(=O)NC2(C(=O)N[C@@H](CCCCN)C(=O)NC3(C(=O)NCC(=O)NC4(C(=O)N[C@@H](Cc5ccccc5)C(=O)NC5(C(=O)NCC(=O)NC6(C(=O)NCC(=O)N[C@@H](CCCCN)C(=O)NC7(C(N)=O)CCCCC7)CCCCC6)CCCCC5)CCCCC4)CCCCC3)CCCCC2)CCCCC1 (Ac-KKKKGF[Ac6c]G[Ac6c]K[Ac6c]G[Ac6c]F[Ac6c]G[Ac6c]GK[Ac6c]-NH2) | 43.8 (≈ 99.9 µg/mL) | 2.73 (≈ 6.24 µg/mL) | 5.47 (≈ 12.5 µg/mL) | 1.37 (≈ 3.13 µg/mL) | 43.8 (≈ 99.9 µg/mL) | 21.9 (≈ 49.9 µg/mL) | 43.8 (≈ 99.9 µg/mL) | 1.37 (≈ 3.13 µg/mL) | 10.9 (≈ 25 µg/mL) | 21.9 (≈ 49.9 µg/mL) | 2.73 (≈ 6.24 µg/mL) | 1.37 (≈ 3.13 µg/mL) | 21.9 (≈ 49.9 µg/mL) | > 44 | > 44 | 21.9 (≈ 49.9 µg/mL) | > 7.5 | 7.3 | > 7.5 | 6.7 | IC50 [13]: > 7.5 µM; IC50 [14]: 6.4 µM; IC50 [15]: > 7.5 µM; IC50 (A498): 4.2 µM; IC50 [16]: > 7.5 µM; IC50 (A549): 7.2 µM; IC50 (NCI-H69): 2.2 µM; IC50 (RL): 3.7 µM |
| CC(=O)NCC(=O)N[C@@H](Cc1ccccc1)C(=O)NC1(C(=O)NCC(=O)NC2(C(=O)N[C@@H](CCCNC(=N)N)C(=O)NC3(C(=O)NCC(=O)NC4(C(=O)N[C@@H](Cc5ccccc5)C(=O)NC5(C(=O)NCC(=O)NC6(C(=O)NCC(=O)N[C@@H](CCCNC(=N)N)C(=O)NC7(C(=O)N[C@@H](CCCNC(=N)N)C(=O)N[C@@H](CCCNC(=N)N)C(=O)N[C@@H](CCCNC(=N)N)C(=O)N[C@@H](CCCNC(=N)N)C(N)=O)CCCC7)CCCC6)CCCC5)CCCC4)CCCC3)CCCC2)CCCC1 (Ac-GF[Ac5c]G[Ac5c]R[Ac5c]G[Ac5c]F[Ac5c]G[Ac5c]GR[Ac5c]RRRR-NH2) | > 42.4 | 2.65 (≈ 6.24 µg/mL) | 42.4 (≈ 99.9 µg/mL) | 2.65 (≈ 6.24 µg/mL) | 5.31 (≈ 12.5 µg/mL) | 5.31 (≈ 12.5 µg/mL) | 5.31 (≈ 12.5 µg/mL) | 5.31 (≈ 12.5 µg/mL) | 2.65 (≈ 6.24 µg/mL) | > 43 | 5.31 (≈ 12.5 µg/mL) | 2.65 (≈ 6.24 µg/mL) | 21.2 (≈ 49.9 µg/mL) | > 43 | > 43 | 21.2 (≈ 49.9 µg/mL) | > 7.5 | > 7.5 | > 7.5 | > 7.5 | IC50 [13]: > 7.5 µM; IC50 [14]: > 7.5 µM; IC50 [15]: > 7.5 µM; IC50 (A498): > 7.5 µM; IC50 [16]: > 7.5 µM; IC50 (A549): > 7.5 µM; IC50 (NCI-H69): 7.1 µM; IC50 (RL): 3.7 µM |
